# Read-outs that look alike come from different tables or passages of the source.
# Key:
# Streptococcus salivarius = settings: cited from earlier work
# [1] = test system: Streptococcus pneumoniae strains; settings: xylitol 0.5 to 5%; cited from earlier work
# S. pneumoniae [2] = settings: cited from earlier work
# [3] = limited human studies of topical xylitol; assay type: in vivo; settings: topical 4% to 7% xylitol, 2-5 times per day
# Streptococcus sanguis = settings: cited from earlier work
# [4] = in vivo; cited from earlier work
# S. mutans [5] = settings: in spite of the presence of glucose or sucrose; cited from earlier work
# SARS-CoV-2 = settings: in vitro, within minutes of application, lasting for hours; cited from earlier work
# H. influenzae [6] = settings: 5% xylitol; cited from earlier work
# [7] = 8.4-10 g daily in five doses, 2-3 months follow-up, cited from earlier work
# [8] = test system: Acanthamoeba species cysts; test: PMN testing of Acanthamoeba species, xylitol with PHMB; assay type: cell-based; settings: xylitol 6% to 20%
# Text: In PMN testing of a number of Acanthamoeba species, Xylitol in concentrations ranging from 6% to 20% has appeared to potentiate the acanthamoeba cysticidal effects of PHMB. In order for a disinfectant like PHMB to be cysticidal, it must gain access to the trophozoite internalized within the cyst. The most obvious route is via the ostioles or the pores in the double cell wall of the cyst that connect the outer exocyst and inner endocyst, thus allowing the internalized amoeba to communicate with its outside environment. It is believed that the mucopolysaccharides of the ostioles are altered by xylitol that enhance the binding by PHMB to allow […] penetration of the disinfectant.
# M. catarrhalis = settings: 5% xylitol; cited from earlier work
# S. pneumoniae [9] = settings: glucose in the growth medium, cited from earlier work
# [10] = test system: beta-haemolytic streptococci; settings: 5% xylitol; cited from earlier work
# H. influenzae [11] = settings: cited from earlier work
# S. mutans [12] = settings: cited from earlier work
# [13] = test system: Acanthamoeba trophozoites; settings: 48 h of exposure; cited from earlier work
# Acanthamoeba cysts = settings: 48 h of exposure; cited from earlier work
compound,measurement,setting,value
OC[C@@H](O)[C@H](O)[C@@H](O)CO [Xylitol],effect on growth of Streptococcus salivarius,Streptococcus salivarius,"modest by comparison, but still significant"
same,adherence on epithelial cells,[1],did not diminish significantly
same,concentration sufficient to reduce adherence of S. pneumoniae to epithelial cells,S. pneumoniae [2],5%
same,corneal SPK,[3],reduce
same,"symptoms and inflammation (imaging of retro-palpebral and ocular surface mucosa, Meibomian gland obstruction)",[3],improve
same,effect on growth of Streptococcus sanguis,Streptococcus sanguis,"modest by comparison, but still significant"
same,time until xylitol disappeared from the saliva,[4],≤ 15 min
same,growth of S. mutans,S. mutans [5],markedly reduced
same,reduction of virion concentrations,SARS-CoV-2,multiple log MAR reduction
same,growth of H. influenza,H. influenzae [6],minimally affected
same,reduction of acute otitis media,[7]; chewing gum,approximately 40%
same,reduction of acute otitis media,[7]; oral xylitol syrup,approximately 30%
same,effect on acanthamoeba cysticidal effects of PHMB,[8],potentiate
same,growth of M. catarrhalis,M. catarrhalis,minimally affected
same,inhibition of pneumococcal growth,S. pneumoniae [9]; 1% xylitol,39%
same,inhibition of pneumococcal growth,S. pneumoniae [9]; 5% xylitol solution,72%
same,growth of beta-haemolytic streptococci,[10],more modestly impaired
same,concentration sufficient to reduce adherence of H. influenzae to epithelial cells,H. influenzae [11],5%
same,concentration capable of reducing adherence of S. mutans,S. mutans [12],6%
Polyhexamethylene Biguanide [PHMB],minimum trophozoite amoebicidal concentration (MTAC),[13],1 g/mL
same,minimum cysticidal concentration (MCC),Acanthamoeba cysts,3 g/mL
